Test results from ChEMBL document CHEMBL1909046, “DrugMatrix in vitro pharmacology data”.
Where a SMILES comes first, the peptide text is derived from it. Bridges are numbered along the chain shown (N, C = ends). [ ]: non-standard residue; d: D form. The star is where a group is joined. Ileψ(thiazoline)Cys = CC[C@H](C)[C@H](N)C1=N[C@H](C(=O)*)CS1; dOrn = NCCC[C@@H](N)C(=O)O

Tests used:
[1] = DRUGMATRIX: Potassium Channel [KATP] radioligand binding (ligand: [3H] Glyburide); assay type: cell membranes, Membrane; conditions: hit-t15; Not Active = under 50% inhibition at 10 µM
[2] = DRUGMATRIX: Sigma2 radioligand binding (ligand: [3H] Ifenprodil); assay type: cell membranes, Rattus norvegicus, Wistar, Brain, Membrane; conditions: Not Active = under 50% inhibition at 10 µM
Calcitonin receptor = target: T1, Calcitonin receptor (Homo sapiens, UniProt P30988); assay type: cell membranes, Membrane; conditions: t47d; also: in other assays of this panel Not Active means under 50% inhibition at 10 µM
T1 sequence (P30988 whole entry): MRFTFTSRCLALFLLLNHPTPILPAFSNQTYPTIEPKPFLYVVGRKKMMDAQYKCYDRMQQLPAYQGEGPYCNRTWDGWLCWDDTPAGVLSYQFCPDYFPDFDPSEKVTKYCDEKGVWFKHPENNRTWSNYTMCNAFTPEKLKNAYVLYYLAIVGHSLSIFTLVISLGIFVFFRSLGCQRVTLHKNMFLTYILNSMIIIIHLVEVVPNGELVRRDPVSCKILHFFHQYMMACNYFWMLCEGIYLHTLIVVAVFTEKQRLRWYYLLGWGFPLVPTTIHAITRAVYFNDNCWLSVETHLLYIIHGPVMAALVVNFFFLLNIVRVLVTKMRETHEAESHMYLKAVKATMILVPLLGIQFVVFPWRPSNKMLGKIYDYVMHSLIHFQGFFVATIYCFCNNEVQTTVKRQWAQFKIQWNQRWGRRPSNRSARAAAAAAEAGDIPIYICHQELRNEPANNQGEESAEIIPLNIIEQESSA

Interstitial collagenase = target: T2, Interstitial collagenase (Homo sapiens, UniProt P03956); assay type: tissue-based, Rheumatoid synovial fibroblasts;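 also: MMP-1 enzyme inhibition assay using a peptide substrate; in other assays of this panel Not Active means under 50% inhibition at 10 µM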
T2 sequence (P03956 whole entry): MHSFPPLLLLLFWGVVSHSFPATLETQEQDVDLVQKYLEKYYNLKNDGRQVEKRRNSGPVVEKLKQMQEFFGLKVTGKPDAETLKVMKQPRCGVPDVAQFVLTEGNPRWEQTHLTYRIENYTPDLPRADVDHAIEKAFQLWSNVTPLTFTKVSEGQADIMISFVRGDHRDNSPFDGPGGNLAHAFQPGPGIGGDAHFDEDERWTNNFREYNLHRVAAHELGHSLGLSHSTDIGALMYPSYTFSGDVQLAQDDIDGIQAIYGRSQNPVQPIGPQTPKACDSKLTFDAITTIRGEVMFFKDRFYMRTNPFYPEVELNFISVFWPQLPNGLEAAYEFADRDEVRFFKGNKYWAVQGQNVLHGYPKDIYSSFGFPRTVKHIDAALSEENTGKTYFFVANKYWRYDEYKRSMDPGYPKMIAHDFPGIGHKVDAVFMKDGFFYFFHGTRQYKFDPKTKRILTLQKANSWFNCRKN

Estrogen receptor = target: T3, Estrogen receptor (Homo sapiens, UniProt P03372); conditions: sf9; also: in other assays of this panel Not Active means under 50% inhibition at 10 µM
T3 sequence (P03372 whole entry): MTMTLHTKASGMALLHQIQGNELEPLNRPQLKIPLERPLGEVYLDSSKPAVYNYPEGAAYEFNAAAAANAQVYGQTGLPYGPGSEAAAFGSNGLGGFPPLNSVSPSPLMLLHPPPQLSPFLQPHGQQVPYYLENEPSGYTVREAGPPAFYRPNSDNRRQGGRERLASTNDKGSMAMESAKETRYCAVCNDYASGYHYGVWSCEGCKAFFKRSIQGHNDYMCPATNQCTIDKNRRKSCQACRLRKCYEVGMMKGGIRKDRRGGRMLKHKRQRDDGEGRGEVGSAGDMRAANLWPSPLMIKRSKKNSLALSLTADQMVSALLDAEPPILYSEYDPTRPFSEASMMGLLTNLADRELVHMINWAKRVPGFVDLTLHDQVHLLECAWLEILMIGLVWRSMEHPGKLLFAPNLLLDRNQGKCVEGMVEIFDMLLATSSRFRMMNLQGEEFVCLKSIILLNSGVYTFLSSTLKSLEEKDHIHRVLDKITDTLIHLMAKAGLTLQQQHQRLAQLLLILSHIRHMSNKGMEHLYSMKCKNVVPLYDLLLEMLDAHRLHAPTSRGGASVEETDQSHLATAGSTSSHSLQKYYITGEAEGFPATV

Carbonic anhydrase 2 = Carbonic anhydrase 2 (Homo sapiens, UniProt P00918); assay: DRUGMATRIX: Carbonic Anhydrase II enzyme inhibition (substrate: 4-Nitrophenyl acetate (4-NPA)); assay type: tissue-based, Erythrocyte; conditions: erythrocyte; Not Active = under 50% inhibition at 10 µM
[3] = DRUGMATRIX: Phosphodiesterase PDE4 enzyme inhibition (substrate: [3H]cAMP + cAMP); conditions: u-937; Not Active = under 50% inhibition at 10 µM
[4] = target: Prostaglandin G/H synthase 1 (Homo sapiens, UniProt P23219); assay: biochemical; assay type: tissue-based, Platelet; conditions: platelet;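 also: inhibition of COX-1 enzyme activity, with arachidonic acid supplied as substrate; in other assays of this panel Not Active means under 50% inhibition at 10 µM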
[5] = DRUGMATRIX: Calcium Channel Type L, Phenylalkylamine radioligand binding (ligand: [3H] (-)-Desmethoxyverapamil (D-888)); assay type: cell membranes, Rattus norvegicus, Wistar, Brain, Membrane; conditions: Not Active = under 50% inhibition at 10 µM
Adenosine receptor A3 = target: T4, Adenosine receptor A3 (Homo sapiens, UniProt P0DMS8); assay type: cell membranes, CHO-K1, Membrane; conditions: cho-k1
T4 sequence (P0DMS8 whole entry): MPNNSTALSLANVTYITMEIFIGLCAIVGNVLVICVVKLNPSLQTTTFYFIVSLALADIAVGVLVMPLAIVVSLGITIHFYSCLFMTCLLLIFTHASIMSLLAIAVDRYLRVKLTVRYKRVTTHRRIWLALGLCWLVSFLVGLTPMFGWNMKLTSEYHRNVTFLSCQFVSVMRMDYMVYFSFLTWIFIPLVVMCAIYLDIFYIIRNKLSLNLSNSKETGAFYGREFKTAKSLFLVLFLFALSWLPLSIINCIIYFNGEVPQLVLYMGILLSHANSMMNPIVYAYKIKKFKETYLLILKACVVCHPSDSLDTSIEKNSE

B2 bradykinin receptor = target: T5, B2 bradykinin receptor (Homo sapiens, UniProt P30411); assay type: cell membranes, Membrane; conditions: chem-1; also: in other assays of this panel Not Active means under 50% inhibition at 10 µM
T5 sequence (P30411 whole entry): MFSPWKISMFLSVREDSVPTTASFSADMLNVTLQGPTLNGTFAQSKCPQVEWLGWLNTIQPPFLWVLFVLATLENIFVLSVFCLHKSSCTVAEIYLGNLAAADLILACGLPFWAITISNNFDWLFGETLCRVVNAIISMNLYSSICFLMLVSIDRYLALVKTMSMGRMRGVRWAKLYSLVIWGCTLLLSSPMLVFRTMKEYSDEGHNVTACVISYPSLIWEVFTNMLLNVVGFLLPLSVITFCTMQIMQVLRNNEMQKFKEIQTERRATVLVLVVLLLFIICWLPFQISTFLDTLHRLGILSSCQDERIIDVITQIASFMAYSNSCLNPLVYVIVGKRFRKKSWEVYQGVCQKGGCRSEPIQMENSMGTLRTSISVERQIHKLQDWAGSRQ

[6] = target: 5-hydroxytryptamine receptor 2B (Homo sapiens, UniProt P41595); assay type: cell membranes, CHO-K1, Membrane; conditions: cho-k1; also: in other assays of this panel Not Active means under 50% inhibition at 10 µM
5-hydroxytryptamine receptor 2B, sequence (P41595 whole entry): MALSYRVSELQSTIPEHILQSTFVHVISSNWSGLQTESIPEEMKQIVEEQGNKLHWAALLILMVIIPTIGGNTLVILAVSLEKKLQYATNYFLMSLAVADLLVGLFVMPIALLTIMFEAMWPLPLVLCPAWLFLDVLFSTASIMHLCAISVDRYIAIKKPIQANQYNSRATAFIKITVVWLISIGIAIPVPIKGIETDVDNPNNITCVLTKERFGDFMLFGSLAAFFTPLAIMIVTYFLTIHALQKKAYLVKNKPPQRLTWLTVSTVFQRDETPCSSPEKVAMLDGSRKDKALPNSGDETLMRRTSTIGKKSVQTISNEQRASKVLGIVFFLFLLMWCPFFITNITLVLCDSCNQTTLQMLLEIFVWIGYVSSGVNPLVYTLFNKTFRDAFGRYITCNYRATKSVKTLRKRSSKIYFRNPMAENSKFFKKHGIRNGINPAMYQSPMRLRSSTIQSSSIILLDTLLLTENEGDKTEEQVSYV

Prostaglandin G/H synthase 1, sequence (P23219 whole entry): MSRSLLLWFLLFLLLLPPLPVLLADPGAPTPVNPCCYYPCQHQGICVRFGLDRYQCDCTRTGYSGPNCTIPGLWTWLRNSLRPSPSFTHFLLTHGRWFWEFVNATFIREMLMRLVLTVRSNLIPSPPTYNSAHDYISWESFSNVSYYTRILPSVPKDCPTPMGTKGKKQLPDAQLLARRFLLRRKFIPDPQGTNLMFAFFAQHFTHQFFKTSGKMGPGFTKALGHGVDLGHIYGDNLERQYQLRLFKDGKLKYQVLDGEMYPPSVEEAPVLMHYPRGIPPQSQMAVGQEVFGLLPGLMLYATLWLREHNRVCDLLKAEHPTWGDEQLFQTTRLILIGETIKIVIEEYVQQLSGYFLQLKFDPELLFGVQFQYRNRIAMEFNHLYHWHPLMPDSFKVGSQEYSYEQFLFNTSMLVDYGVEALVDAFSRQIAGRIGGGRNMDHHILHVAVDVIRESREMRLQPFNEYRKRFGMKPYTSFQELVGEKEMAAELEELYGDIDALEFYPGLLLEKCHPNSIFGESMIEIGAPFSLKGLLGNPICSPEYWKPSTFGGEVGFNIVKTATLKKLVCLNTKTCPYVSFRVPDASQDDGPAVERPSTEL

CC[C@H](C)[C@H](N)C1=N[C@H](C(=O)N[C@@H](CC(C)C)C(=O)N[C@H](CCC(=O)O)C(=O)N[C@H](C(=O)N[C@H]2CCCCNC(=O)[C@H](CC(N)=O)NC(=O)[C@@H](CC(=O)O)NC(=O)[C@H](Cc3cnc[nH]3)NC(=O)[C@@H](Cc3ccccc3)NC(=O)[C@H]([C@@H](C)CC)NC(=O)[C@@H](CCCN)NC2=O)[C@@H](C)CC)CS1 [BACITRACIN] ({Ileψ(thiazoline)Cys}-L[dE]IK[dOrn]I[dF]H[dD]N; lactam 4-C)
Not Active: IC50 [1] | Ki [1] | IC50 [2] | Ki [2] | IC50 (Calcitonin receptor) | IC50 (Interstitial collagenase) | IC50 (Estrogen receptor) | IC50 (Carbonic anhydrase 2) | IC50 [3] | Ki [3] | IC50 [4] | IC50 [5] | Ki [5] | IC50 (Adenosine receptor A3) | IC50 (B2 bradykinin receptor) | IC50 [6]

CC(/C=C1\SC(=S)N(CC(=O)O)C1=O)=C\c1ccccc1
Not Active: IC50 [1] | Ki [1] | IC50 [2] | Ki [2] | IC50 (Calcitonin receptor) | IC50 (Interstitial collagenase) | IC50 (Estrogen receptor) | IC50 (Carbonic anhydrase 2) | IC50 [3] | Ki [3] | IC50 [4] | IC50 [5] | Ki [5] | IC50 (Adenosine receptor A3) | IC50 (B2 bradykinin receptor) | IC50 [6]

CC(=O)O[C@]1(C(C)=O)CC[C@H]2[C@@H]3C=C(Cl)C4=CC(=O)CC[C@]4(C)[C@H]3CC[C@@]21C [CHLORMADINONE ACETATE]
Not Active: IC50 [1] | Ki [1] | IC50 [2] | Ki [2] | IC50 (Calcitonin receptor) | IC50 (Interstitial collagenase) | IC50 (Estrogen receptor) | IC50 (Carbonic anhydrase 2) | IC50 [3] | Ki [3] | IC50 [4] | IC50 [5] | Ki [5] | IC50 (Adenosine receptor A3) | IC50 (B2 bradykinin receptor) | IC50 [6]

CN1CCC[C@H]1c1cccnc1 [NICOTINE]
Not Active: IC50 [1] | Ki [1] | IC50 [2] | Ki [2] | IC50 (Calcitonin receptor) | IC50 (Interstitial collagenase) | IC50 (Estrogen receptor) | IC50 (Carbonic anhydrase 2) | IC50 [3] | Ki [3] | IC50 [4] | IC50 [5] | Ki [5] | IC50 (Adenosine receptor A3) | IC50 (B2 bradykinin receptor) | IC50 [6]

NCC[C@H](O)C(=O)N[C@@H]1C[C@H](N)[C@@H](O[C@H]2O[C@H](CN)[C@@H](O)[C@H](O)[C@H]2O)[C@H](O)[C@H]1O[C@H]1O[C@H](CO)[C@@H](O)[C@H](N)[C@H]1O [AMIKACIN]
Not Active: IC50 [1] | Ki [1] | IC50 [2] | Ki [2] | IC50 (Calcitonin receptor) | IC50 (Interstitial collagenase) | IC50 (Estrogen receptor) | IC50 (Carbonic anhydrase 2) | IC50 [3] | Ki [3] | IC50 [4] | IC50 [5] | Ki [5] | IC50 (Adenosine receptor A3) | IC50 (B2 bradykinin receptor) | IC50 [6]
